Patent publication US5723461A, “Quinoxalines, a process for their preparation and their use” (Hoechst Aktiengesellschaft, priority 1994, dated 1998)
Values after ≈ are worked out from the molar mass of the structure shown.

How the values were obtained:
HIV = assay: Testing of preparations against HIV in cell culture (T-cell culture assay); type: cell-based; conditions: Human immunodeficiency virus 1, 72 h, HIV-infected lymphocytes, 3 days at 37° C., lowest concentration at which no giant cells occurred, read-out: MIC EC50
Experimental: Testing of preparations against HIV in cell culture
Description of the method:
Complete medium additionally contains 20% fetal calf serum and 40 IU/ml recombinant interleukin 2.
Lymphocytes, which have been isolated from fresh donor blood by means of Ficoll® gradient centrifugation, are cultured, for 36 hours at 37° C. and under 5% CO2, in complete medium which additionally contains […] phytohemagglutinin (Wellcome). After 10% DMSO has been added, the cells are frozen at a cell density of 5×10^6 and stored in liquid nitrogen. For the experiment, the cells are thawed, washed in the RPMI medium and cultured for 3 to 4 days in the complete medium.
The test preparations were dissolved in DMSO at a concentration of 16.7 mg/ml, and these solutions were diluted with complete medium to a concentration of 1 mg/ml. 0.4 ml of medium was initially introduced into 24-well multiwell plates. After 0.1 ml of the dissolved preparation had been added to the upper row of the plate, a geometric dilution series was produced by transferring 0.1 ml on each occasion. Preparation-free controls contained 0.4 ml of complete medium containing 0.5% DMSO.
Lymphocyte cultures having a cell count of 5×10^5 cells/ml were infected by adding a 1/50 volume of the supernatant from HIV-infected lymphocyte cultures. The titer of these culture supernatants was determined by end-point dilution to be 1-5×10^6 infectious units/ml. After having been incubated at 37° C. for 30 min, the infected lymphocytes were centrifuged off and taken up once again in the same volume of medium. 0.6 ml of this cell suspension was added to each of the wells in the test plate. The assay mixtures were incubated at 37° C. for 3 days.
The infected cell cultures were examined under the microscope for the presence of giant cells, which are indicative of active viral replication in the culture. The lowest preparation concentration at which no giant cells occurred was determined and taken to be the inhibitory concentration against HIV. As a control, the supernatants from the culture plates were assayed for the presence of HIV antigen using an HIV antigen test in accordance with the manufacturer's (Organon) instructions.

[1] = biological target: T1, HIV reverse transcriptase (Human immunodeficiency virus type 1 group M subtype B, UniProt P04585); assay: Inhibition of HIV reverse transcriptase (scintillation proximity assay); type: biochemical; conditions: Reverse transcriptase assay (SPA), 60 min, 37° C.
T1 construct: purchased HT Biotechnology Ltd., Cambridge, UK; host or cells: E. coli
Experimental: Examination of the substances for their ability to inhibit HIV reverse transcriptase
The activity of the reverse transcriptase (RT) was determined using a scintillation proximity assay (SPA).
The reagent kit for the RT SPA was obtained from Amersham/Buchler (Braunschweig). The RT enzyme (derived from HIV and cloned in E. coli) was obtained from HT Biotechnology Ltd., Cambridge, UK.
The test was carried out in accordance with the manufacturer's (Amersham) methods manual, with the following modifications:
Bovine serum albumin was added to the assay buffer to a final concentration of 0.5 mg/ml.
The test was carried out in Eppendorf tubes using an assay mixture volume of 100 μl.
The manufacturer's RT concentrate (5000 U/ml) was diluted to an activity of 15 U per ml using 20 mM tris-HCl buffer, pH 7.2, 30% glycerol.
The assay mixtures were incubated for 60 min (37° C.).
After the reaction had been stopped and "developed" with the bead suspension, 130 μl of assay mixture were transferred into 4.5 ml of 10 mM tris-HCl buffer, pH 7.4, 0.15M NaCl and the tritium activity was measured in a β-counter.
In order to carry out a preliminary test of their inhibitory activity, the substances were dissolved in DMSO (stock solution, c=1 mg/ml) and tested when diluted 10^-1, 10^-2, 10^-3 etc. in DMSO.
In order to determine IC50 values, the stock solutions of inhibitor were further diluted in 50 mM tris-HCl buffer, pH 8, and tested at suitable concentrations.
The concentration associated with 50% inhibition of the enzyme was ascertained from the plot of RT activity against log Cinh.

Question: With `CCCC[C@H]1C(=S)Nc2ccccc2N1C(=O)OC(C)C` [Example 88] as the compound, how does the EC50 (HIV) read?
Answer: The EC50 was under 40 ng/mL.

Question: With `CSC[C@H]1C(=S)Nc2ccccc2N1C(=O)OC(C)C` [Example 90] as the compound, how does the EC50 (HIV) read?
Answer: The EC50 was under 8 ng/mL.

Question: And the IC50 [1]?
Answer: The IC50 was 16.1 nM.

Question: Which results are given for `CC[C@H]1C(=S)Nc2ccc(Cl)cc2N1C(=O)OC(C)C` [Example 91]?
Answer: EC50 (HIV): 2 ng/mL (≈ 0.00639 µM); IC50 [1]: 12.8 nM

Question: Which results are given for `CSC[C@H]1C(=S)Nc2ccc(Cl)cc2N1C(=O)OC(C)C` [Example 94]?
Answer: EC50 (HIV): < 8 ng/mL; IC50 [1]: 43.5 nM

Question: With `CC[C@H]1C(=S)Nc2ccc(F)cc2N1C(=O)OC(C)C` [Example 95] as the compound, how does the EC50 (HIV) read?
Answer: The EC50 was 2 ng/mL (≈ 0.00675 µM).

Question: How did the EC50 (HIV) turn out when `CCC[C@H]1C(=S)Nc2ccc(F)cc2N1C(=O)OC(C)C` [Example 96] was run?
Answer: The EC50 was 80 ng/mL (≈ 0.258 µM).

Question: And the IC50 [1]?
Answer: The IC50 was 51.5 nM.

Question: Which EC50 (HIV) does the source give for `CSC[C@H]1C(=S)Nc2ccc(F)cc2N1C(=O)OC(C)C` [Example 98] here?
Answer: The EC50 was 3 ng/mL (≈ 0.00913 µM).

Question: And the IC50 [1]?
Answer: The IC50 was 36.5 nM.

Question: With `CC[C@H]1C(=S)Nc2ccc(OC)cc2N1C(=O)OC(C)C` [Example 99] as the compound, how does the EC50 (HIV) read?
Answer: The EC50 was under 1 ng/mL.

Question: What about the IC50 [1] of the same compound?
Answer: The IC50 was 35.7 nM.

Question: For `CCC[C@H]1C(=S)Nc2ccc(OC)cc2N1C(=O)OC(C)C` [Example 100], which EC50 (HIV) is on record?
Answer: The EC50 was 4 ng/mL (≈ 0.0124 µM).

Question: And the IC50 [1]?
Answer: The IC50 was 49.6 nM.

Question: Which EC50 (HIV) does the source give for `COC[C@H]1C(=S)Nc2ccc(OC)cc2N1C(=O)OC(C)C` [Example 104] here?
Answer: The EC50 was 8 ng/mL (≈ 0.0247 µM).

Question: And the IC50 [1]?
Answer: The IC50 was 108 nM.

Question: With `CCOc1ccc2c(c1)N(C(=O)OC(C)C)[C@@H](CSC)C(=S)N2` [Example 108] as the compound, how does the EC50 (HIV) read?
Answer: Its EC50 is under 5 ng/mL.

Question: What about the IC50 [1] of the same compound?
Answer: The IC50 was 22.6 nM.

Question: Which EC50 (HIV) does the source give for `CCCOc1ccc2c(c1)N(C(=O)OC(C)C)[C@@H](CSC)C(=S)N2` [Example 110] here?
Answer: The EC50 was 4 ng/mL (≈ 0.0109 µM).

Question: And the IC50 [1]?
Answer: Its IC50 is 27.1 to 271 nM.

Question: What does the source list for `C=C(C)OC(=O)N1c2cc(Cl)ccc2NC(=S)[C@@H]1CC` [Example 113]?
Answer: EC50 (HIV): 0.8 ng/mL (≈ 0.00257 µM); IC50 [1]: 19.3 nM

Question: What does the source list for `C=CCOC(=O)N1c2cc(Cl)ccc2NC(=S)[C@@H]1CC` [Example 114]?
Answer: EC50 (HIV): 1.6 ng/mL (≈ 0.00515 µM); IC50 [1]: 22.5 nM

Question: With `C=C(C)OC(=O)N1c2cc(Cl)ccc2NC(=S)[C@@H]1CSC` [Example 115] as the compound, how does the EC50 (HIV) read?
Answer: Its EC50 is 1.6 ng/mL (≈ 0.00467 µM).

Question: And the IC50 [1]?
Answer: Its IC50 is 29.2 nM.

Question: With `C=C(C)OC(=O)N1c2cc(OC)ccc2NC(=S)[C@@H]1CSC` [Example 124] as the compound, how does the EC50 (HIV) read?
Answer: The EC50 was under 8 ng/mL.

Question: Which IC50 [1] does the source give for `CCC(C)COC(=O)N1c2cc(OC)ccc2NC(=S)[C@@H]1CSC` (stereo partly drawn) [Example 125] here?
Answer: The IC50 was 40.7 nM.

Question: Which EC50 (HIV) does the source give for `CCOC(=O)N1c2cc(F)ccc2NC(=S)[C@@H]1CC` [Example 134] here?
Answer: The EC50 was 8 ng/mL (≈ 0.0283 µM).

Question: What about the IC50 [1] of the same compound?
Answer: The IC50 was 10.6 nM.

Question: Which EC50 (HIV) does the source give for `CSC[C@H]1C(=S)Nc2ccc(O)cc2N1C(=O)OC(C)C` [Example 140a] here?
Answer: Its EC50 is 40 ng/mL (≈ 0.123 µM).

Question: And the IC50 [1]?
Answer: The IC50 was 285 nM.

Question: Which results are given for `CC[C@H]1C(=S)Nc2ccc(O)cc2N1C(=O)OC(C)C` [Example 140b]?
Answer: EC50 (HIV): < 80 ng/mL; IC50 [1]: 238 nM

Question: What does the source list for `C=CCOC(=O)N1c2cc(Cl)ccc2NC(=S)[C@@H]1C` [Example 140c]?
Answer: EC50 (HIV): 40 ng/mL (≈ 0.135 µM); IC50 [1]: 371 nM

Question: What does the source list for `C=C(C)OC(=O)N1c2cc(Cl)ccc2NC(=S)[C@@H]1C` [Example 140d]?
Answer: EC50 (HIV): 10 ng/mL (≈ 0.0337 µM); IC50 [1]: 91 nM

Question: Which EC50 (HIV) does the source give for `CCC(C)OC(=O)N1c2cc(OC)ccc2NC(=S)[C@@H]1CSC` (stereo partly drawn) [Example 140f] here?
Answer: The EC50 was 8 ng/mL (≈ 0.0226 µM).

Question: What about the IC50 [1] of the same compound?
Answer: Its IC50 is 53.6 nM.

Question: What does the source list for `COc1ccc2c(c1)N(C(=O)OCC(C)C)[C@@H](CSC)C(=S)N2` [Example 140g]?
Answer: EC50 (HIV): 40 ng/mL (≈ 0.113 µM); IC50 [1]: 48 nM

Question: For `CC[C@H]1C(=S)Nc2ccc(F)cc2N1C(=O)OC` [Example 140h], which EC50 (HIV) is on record?
Answer: The EC50 was 10 ng/mL (≈ 0.0373 µM).

Question: What about the IC50 [1] of the same compound?
Answer: The IC50 was 29.8 nM.

Question: Which EC50 (HIV) does the source give for `CCCCOC(=O)N1c2cc(F)ccc2NC(=S)[C@@H]1CC` [Example 140i] here?
Answer: Its EC50 is 10 ng/mL (≈ 0.0322 µM).

Question: And the IC50 [1]?
Answer: The IC50 was 70.9 nM.

Question: How did the EC50 (HIV) turn out when `CC[C@H]1C(=S)Nc2ccc(F)cc2N1C(=O)OCC(C)C` [Example 140j] was run?
Answer: The EC50 was 10 ng/mL (≈ 0.0322 µM).

Question: What about the IC50 [1] of the same compound?
Answer: Its IC50 is 48.3 nM.

Question: How did the EC50 (HIV) turn out when `CCC(C)OC(=O)N1c2cc(F)ccc2NC(=S)[C@@H]1CC` (stereo partly drawn) [Example 140k] was run?
Answer: Its EC50 is 8 ng/mL (≈ 0.0258 µM).

Question: And the IC50 [1]?
Answer: The IC50 was 51.5 nM.

Question: What does the source list for `COC[C@H]1C(=S)Nc2ccc(F)cc2N1C(=O)OC(C)C` [Example 140l]?
Answer: EC50 (HIV): 8 ng/mL (≈ 0.0256 µM); IC50 [1]: 70.4 nM
